# Test results published in patent US7919484B2, “Combination therapy” (Xenon Pharmaceuticals Inc., priority 2005, dated 2011).
# Experiments:
# [1] = cited from earlier work
# SCD = target: T1, SCD (Homo sapiens, UniProt O00767); settings: known from the art; cited from earlier work
# T1 sequence (O00767 1-359): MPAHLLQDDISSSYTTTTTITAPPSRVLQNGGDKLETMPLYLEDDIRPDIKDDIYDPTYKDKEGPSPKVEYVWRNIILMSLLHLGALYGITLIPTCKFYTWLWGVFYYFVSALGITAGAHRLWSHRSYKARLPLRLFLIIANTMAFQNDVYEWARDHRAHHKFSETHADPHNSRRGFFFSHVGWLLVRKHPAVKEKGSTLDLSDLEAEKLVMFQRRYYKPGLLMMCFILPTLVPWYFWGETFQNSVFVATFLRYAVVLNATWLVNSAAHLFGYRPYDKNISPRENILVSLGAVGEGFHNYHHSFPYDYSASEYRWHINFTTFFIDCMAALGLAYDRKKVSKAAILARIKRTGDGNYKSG
# [2] = Effect of SCD-1 inhibitor and rosiglitazone co-administration on body weight in ZDF rats (Example 1); type: in vivo, Male Zucker Diabetic Fatty Rats (ZDF); settings: mean +/- SEM, Rosi 10 mg/kg, XEN103 5 mg/kg daily po; for Final Body Weight: end of treatment
# Description: Male Zucker Diabetic Fatty Rats (ZDF) began treatment at the age of 7 weeks of age. Animals were housed three to a cage in a temperature, humidity and light controlled room. The animals were fed a standard rodent diet and had free access to water. Animals were randomized into groups of 9 and placed in the following experimental groups for daily dosing (10:30 am) as described in table 5 below. Animals were weighed three times per week. Food intake was recorded three times per week. XEN 1 is a representative SCD-1 inhibitor compound of the invention. The formulations were: • Vehicle=1% CMC:0.1% Tween 20:10% PG • Rosi-10=rosiglitazone 10 mg/kg in 1% CMC:0.1% Tween 20:10% PG • Rosi-10+XEN1=rosiglitazone 10 mg/kg+XEN1 5 mg/kg in 1% CMC:0.1% Tween 20:10% PG • XEN1=XEN1 5 mg/kg in 1% CMC:0.1% Tween 20:10% PG
# SCD enzyme = target: T2, SCD enzyme (Rattus norvegicus, UniProt P07308); test: Plasma desaturation index (DI) in ZDF rats after treatment (Example 2); type: in vivo; settings: plasma triglycerides, mean +/- standard deviation, rosiglitazone 10 mg/kg, XEN1 5 mg/kg
# T2 construct: indicator of endogenous SCD1 activity; from tissue; host or cells: living male Zucker Diabetic Fatty rats, dosed orally
# T2 sequence (P07308 1-358): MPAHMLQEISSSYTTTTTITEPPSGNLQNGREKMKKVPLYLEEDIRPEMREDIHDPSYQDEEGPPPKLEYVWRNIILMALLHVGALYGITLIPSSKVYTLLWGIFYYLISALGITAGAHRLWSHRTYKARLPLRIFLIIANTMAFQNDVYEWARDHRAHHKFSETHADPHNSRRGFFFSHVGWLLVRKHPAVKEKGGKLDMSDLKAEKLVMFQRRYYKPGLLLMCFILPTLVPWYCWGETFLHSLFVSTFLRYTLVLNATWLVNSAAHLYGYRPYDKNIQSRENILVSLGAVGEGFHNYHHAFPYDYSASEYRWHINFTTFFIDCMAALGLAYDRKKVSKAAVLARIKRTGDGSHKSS
# Description: Another suitable method is to indirectly measure the SCD-1 inhibitors impact on inhibition of SCD enzyme by measuring a subject's desaturation index (‘DI’) after administration of the SCD-1 inhibitors. DI as employed in this specification means the ratio of the product over the substrate for the SCD enzyme as measured from a given tissue sample. This may be calculated using three different equations 18:1n−9/18:0 (oleic acid over stearic acid); 16:1n−7/16:0 (palmitoleic acid over palmitic acid); and/or 16:1n−7+18:1n−7/16:0 (measuring all reaction products of 16:0 desaturation over 16:0 substrate). DI is primarily measured in liver or plasma triglycerides, but may also be measured in other selected lipid fractions from a variety of tissues.
# Desaturation indexes were calculated from the fatty acid profile of circulating plasma triglycerides. […] An additional 0.5 mL of chloroform containing 0.05 mg/mL of glyceryl-triheptadecanoin as an internal standard were also added. Samples were thoroughly vortexed and the phases separated by centrifugation at 2000 rpm for 8 minutes. […]
# 3 desaturation indexes were calculated from the chromatograms based on absolute peak areas; the ratio of palmitoleic acid to palmitic acid (C16:1n7/C16:0), the ratio of oleic acid to stearic acid (C18:1n9/C18:0) and the ratio of palmitoleic acid and vaccenic acid to palmitic acid (C16:1n7+C18:1n7/C16:0).
SMILES,Inhibition of SCD activity (in words) (SCD),Final Body Weight [2],Body Weight Gain - 5 week treatment [2],also measured
N[C@@H]1C[C@H]1c1ccccc1 (racemic) [Tranylcypromine],,,,"Side Effect (in words) ([1]; human, in vivo): Adverse weight"
"CCCCCCCCC1=C(CCCCCCCC(=O)O)C1 [Sterculic acid, 8-(2-octylcyclopropenyl)octanoic acid]",non-specifically inhibit SCD activity,,,
O=C(NCCC1CC1)c1ccc(N2CCN(C(=O)c3cc(F)ccc3C(F)(F)F)CC2)nn1 [XEN 1],,312.2 ± 5.1 g,150.7 ± 3.5 g,Plasma desaturation index (DI) C16:1n7/C16:0 (SCD enzyme): 0.043 +/− 0.004; Plasma desaturation index (DI) C18:1n9/C18:0 (SCD enzyme): 5.874 +/− 0.422
"CCCCCCCCC1=C(CCCCCCC(=O)O)C1 [malvalic acid, 7-(2-octylcyclopropenyl)heptanoic acid]",non-specifically inhibit SCD activity,,,
CC(=O)O[C@]1(C(C)=O)CC[C@H]2[C@@H]3C[C@H](C)C4=CC(=O)CC[C@]4(C)[C@H]3CC[C@@]21C [medroxyprogesterone acetate],,,,Side Effect: increase in body weight ([1]; 6 months): 6.2% increase in
CN(CCOc1ccc(CC2SC(=O)NC2=O)cc1)c1ccccn1 (centres unmarked) [rosiglitazone],,485.3 ± 7.3 g,321.9 ± 6.5 g,"Weight gain associated with low-dose treatment ([1]; 4 mg/day, after one year treatment): about 8 kg/year"
